Molecular target: T1, BACE2 (Homo sapiens, UniProt Q9Y5Z0)
T1 construct: BACE2 enzyme ectodomain (derived from plasmid “pET17b-T7-hu proBACE2”); T7 tag; made in house; a pET17b plasmid implies E. coli (own knowledge)
T1 sequence (Q9Y5Z0 63-473 limits assumed): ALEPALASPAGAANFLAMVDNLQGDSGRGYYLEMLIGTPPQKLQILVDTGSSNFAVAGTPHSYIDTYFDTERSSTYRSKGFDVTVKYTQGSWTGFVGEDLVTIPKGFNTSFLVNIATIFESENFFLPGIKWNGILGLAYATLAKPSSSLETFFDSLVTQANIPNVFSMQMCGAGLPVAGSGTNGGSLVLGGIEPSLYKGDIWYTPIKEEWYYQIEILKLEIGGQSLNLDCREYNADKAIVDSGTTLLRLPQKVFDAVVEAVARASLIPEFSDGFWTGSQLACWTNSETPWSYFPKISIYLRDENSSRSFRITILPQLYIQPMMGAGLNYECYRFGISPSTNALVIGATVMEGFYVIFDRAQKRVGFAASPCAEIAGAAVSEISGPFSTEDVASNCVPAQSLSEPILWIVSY
Assay: Immunofluorescence Resonance Energy Transfer (FRET) assay for BACE2 inhibition
Assay type: biochemical
Settings: pH 4.5; 5 μM TMEM27-based FRET peptide substrate
Protocol: BACE2 enzyme ectodomain (derived from plasmid “pET17b-T7-hu proBACE2”) was prepared as described in Ostermann et al., “Crystal Structure of Human BACE2 in Complex with a Hydroxyethylamine Transition-state Inhibitor”, Journal of Molecular Biology 2006, 355, 249-261. The pro-enzyme was stored at 4° C. at a concentration of 70 μg/ml.
The FRET assay was performed essentially as described in Grüninger-Leitch et al., Journal of Biological Chemistry (2002) 277(7) 4687-93 (“Substrate and inhibitor profile of BACE (beta-secretase) and comparison with other mammalian aspartic proteases”). In summary, a peptide is designed that is cleaved by the protease. The peptide is labelled with dabcyl at the N terminus and Lucifer Yellow at the C-terminus, such that for an intact peptide the Lucifer Yellow fluorescence is quenched by the dabcyl. When the peptide is cut by BACE2, the quenching is removed and a fluorescent signal is generated.
The assay was performed as described in Grueninger et al. 2002 at pH 4.5 using a substrate concentration of 5 μM. A FRET peptide based on the TMEM27 sequence was devised. dabcyl—[…]—LucY.
The assay readout is the initial rate of change of fluorescence intensity giving a relative measure of BACE2 activity. Small values correspond to high inhibition and larger values to low inhibition. […] IC50 values were determined using these assay values generated for a range of inhibitor concentrations and the curve fitting software XLfit (IDBS) using the Sigmoidal Dose-Response Model.

| IC50 [nM] | SMILES |
| --- | --- |
| 8 | CC[C@@]1(c2cc(NC(=O)c3ccc(Cl)cn3)ccc2F)CCSC(N)=N1 [Example 2, 5-Chloro-pyridine-2-carboxylic acid [3-((S)-2-amino-4-ethyl-5,6-dihydro-4H-[1,3]thiazin-4-yl)-4-fluoro-phenyl]-amide] |
| 1030 | CC[C@@]1(c2cc(NC(=O)c3ccccn3)ccc2F)CCSC(N)=N1 [Example 3, Pyridine-2-carboxylic acid [3-((S)-2-amino-4-ethyl-5,6-dihydro-4H-[1,3]thiazin-4-yl)-4-fluoro-phenyl]-amide] |
| 2700 | CC[C@@]1(c2cc(NC(=O)c3ccc(Cl)cc3)ccc2F)CCSC(N)=N1 [Example 4, N-[3-((S)-2-Amino-4-ethyl-5,6-dihydro-4H-[1,3]thiazin-4-yl)-4-fluoro-phenyl]-4-chloro-benzamide] |
| 1000 | CC[C@@]1(c2cc(NC(=O)c3cnc(Cl)cn3)ccc2F)CCSC(N)=N1 [Example 5, 5-Chloro-pyrazine-2-carboxylic acid [3-((S)-2-amino-4-ethyl-5,6-dihydro-4H-[1,3]thiazin-4-yl)-4-fluoro-phenyl]-amide] |
| 440 | CC[C@@]1(c2cc(NC(=O)c3ncc(Cl)cn3)ccc2F)CCSC(N)=N1 [Example 6, 5-Chloro-pyrimidine-2-carboxylic acid [3-((S)-2-amino-4-ethyl-5,6-dihydro-4H-[1,3]thiazin-4-yl)-4-fluoro-phenyl]-amide] |
| 5460 | CC[C@@]1(c2cc(NC(=O)c3ncccc3C(F)(F)F)ccc2F)CCSC(N)=N1 [Example 7, 3-Trifluoromethyl-pyridine-2-carboxylic acid [3-((S)-2-amino-4-ethyl-5,6-dihydro-4H-[1,3]thiazin-4-yl)-4-fluoro-phenyl]-amide] |
| 4930 | CC[C@@]1(c2cc(NC(=O)c3ncccc3-c3ccccc3)ccc2F)CCSC(N)=N1 [Example 8, 3-Phenyl-pyridine-2-carboxylic acid [3-((S)-2-amino-4-ethyl-5,6-dihydro-4H-[1,3]thiazin-4-yl)-4-fluoro-phenyl]-amide] |
| 41000 | CC[C@@]1(c2cc(NC(=O)c3cc(Cl)ccn3)ccc2F)CCSC(N)=N1 [Example 9, 4-Chloro-pyridine-2-carboxylic acid [3-((S)-2-amino-4-ethyl-5,6-dihydro-4H-[1,3]thiazin-4-yl)-4-fluoro-phenyl]-amide] |
| 50900 | CC[C@@]1(c2cc(NC(=O)c3cccc(C)n3)ccc2F)CCSC(N)=N1 [Example 10, 6-Methyl-pyridine-2-carboxylic acid [3-((S)-2-amino-4-ethyl-5,6-dihydro-4H-[1,3]thiazin-4-yl)-4-fluoro-phenyl]-amide] |
| 23000 | CC[C@@]1(c2cc(NC(=O)c3nc(Cl)ccc3Cl)ccc2F)CCSC(N)=N1 [Example 11, 3,6-Dichloro-pyridine-2-carboxylic acid [3-((S)-2-amino-4-ethyl-5,6-dihydro-4H-[1,3]thiazin-4-yl)-4-fluoro-phenyl]-amide] |
| 33500 | CC[C@@]1(c2cc(NC(=O)c3nc(Cl)ccc3C(F)(F)F)ccc2F)CCSC(N)=N1 [Example 12, 6-Chloro-3-trifluoromethyl-pyridine-2-carboxylic acid [3-((S)-2-amino-4-ethyl-5,6-dihydro-4H-[1,3]thiazin-4-yl)-4-fluoro-phenyl]-amide] |
| 9100 | CC[C@@]1(c2cc(NC(=O)c3cc4ccccc4cn3)ccc2F)CCSC(N)=N1 [Example 13, Isoquinoline-3-carboxylic acid [3-((S)-2-amino-4-ethyl-5,6-dihydro-4H-[1,3]thiazin-4-yl)-4-fluoro-phenyl]-amide] |
| 3080 | CC[C@@]1(c2cc(NC(=O)c3nccc4ccsc34)ccc2F)CCSC(N)=N1 [Example 14, Thieno[2,3-c]pyridine-7-carboxylic acid [3-((S)-2-amino-4-ethyl-5,6-dihydro-4H-[1,3]thiazin-4-yl)-4-fluoro-phenyl]-amide] |
| 916 | CC[C@@]1(c2cc(NC(=O)c3cc4ccccc4s3)ccc2F)CCSC(N)=N1 [Example 15, Benzo[b]thiophene-2-carboxylic acid [3-((S)-2-amino-4-ethyl-5,6-dihydro-4H-[1,3]thiazin-4-yl)-4-fluoro-phenyl]-amide] |
| 667 | CC[C@@]1(c2cc(NC(=O)c3ccc(C)s3)ccc2F)CCSC(N)=N1 [Example 16, 5-Methyl-thiophene-2-carboxylic acid [3-((S)-2-amino-4-ethyl-5,6-dihydro-4H-[1,3]thiazin-4-yl)-4-fluoro-phenyl]-amide] |
| 2140 | CC[C@@]1(c2cc(NC(=O)c3ccn(C)n3)ccc2F)CCSC(N)=N1 [Example 17, 1-Methyl-1H-pyrazole-3-carboxylic acid [3-((S)-2-amino-4-ethyl-5,6-dihydro-4H-[1,3]thiazin-4-yl)-4-fluoro-phenyl]-amide] |
| 475 | CC[C@@]1(c2cc(NC(=O)c3coc(C)n3)ccc2F)CCSC(N)=N1 [Example 18, 2-Methyl-oxazole-4-carboxylic acid [3-((S)-2-amino-4-ethyl-5,6-dihydro-4H-[1,3]thiazin-4-yl)-4-fluoro-phenyl]-amide] |
| 33600 | CC[C@@]1(c2cc(NC(=O)c3csc(C)n3)ccc2F)CCSC(N)=N1 [Example 19, 2-Methyl-thiazole-4-carboxylic acid [3-((S)-2-amino-4-ethyl-5,6-dihydro-4H-[1,3]thiazin-4-yl)-4-fluoro-phenyl]-amide] |

From patent US20130096107A1, “USE OF AMINODIHYDROTHIAZINES FOR THE TREATMENT OR PREVENTION OF DIABETES” (Hoffmann-La Roche Inc., priority 2009, published 2013)
